Key:
[1] = test system: phospho-4E-BP1 (Thr37/Thr46) protein; experiment: Relative phospho-4E-BP1 protein amount (ELISA) in human liver cancer cell line HuH-7 (Example 4); format: cell-based; conditions: metformin 5 mmol/L, dihydroquercetin 0.2 mmol/L, single or combined, 6 hr, control 84.1
Method: (§1) On the following day after cell seeding, test substances were added and the cells were cultured for 6 hr before harvesting them. The amounts of relative phospho-4E-BP1 protein contained in the prepared whole cell lysates were measured and evaluated. Each group (N=3) was treated as follows: • (1) Control (vehicle control) group: 1% ethanol containing medium • (2) Metformin single-treated group: metformin 5 mmol/L • (3) Dihydroquercetin single-treated group: dihydroquercetin 0.2 mmol/L • (4) Combined-treated group: metformin 5 mmol/L+dihydroquercetin 0.2 mmol/L
The passage-cultured HuH-7 cells were dissociated with trypsin, and suspended in fresh medium. The cell density of the cell suspension was determined using a hematocytometer and adjusted to 2.5×10^5 cells/mL. The cells were seeded on 12-well multiwell culture plate at 1 mL per well, and cultured overnight under the conditions of 37° C., 5% CO2. […] Upon centrifugation, the supernatants were sampled, and the amounts of relative phospho-4E-BP1 (Thr37/Thr46) protein in the samples were quantified using ELISA kits in the same manner as in Example 1. The concentrations of the total protein in the whole cell lysates were measured using BCA protein assay, and the relative phospho-4E-BP1 protein amount of each well was normalized with the total protein amount. […]

[2] = test system: phospho-4E-BP1 (Thr37/Thr46) protein; experiment: Relative phospho-4E-BP1 protein amount (ELISA) in human breast cancer cell line MDA-MB-231 (Example 5); format: cell-based; conditions: metformin 5 mmol/L, dihydroquercetin 0.2 mmol/L, single or combined, 6 hr, control 33.3
Method: as §1
The passage-cultured MDA-MB-231 cells were dissociated with trypsin, and suspended in fresh medium. The cell density of the cell suspension was determined using a hematocytometor and adjusted to 2.5×10^5 cells/mL. The cells were seeded on 12-well multiwell culture plate at 1 mL per well, and cultured overnight under the conditions of 37° C., 5% CO2. […] Upon centrifugation, the supernatants were sampled, and the amounts of relative phospho-4E-BP1 (Thr37/Thr46) protein in the samples were quantified using ELISA kits in the same manner as in Example 1. The concentrations of total protein in the whole cell lysates were measured using BOA protein assay, and the relative phospho-4E-BP1 protein amount of each well was normalized with the total protein amount. […]

[3] = test system: phospho-4E-BP1 (Thr37/Thr46) protein; experiment: Relative phospho-4E-BP1 protein amount (ELISA) in human prostate cancer cell line 22Rv1 (Example 6); format: cell-based; conditions: metformin 10 mmol/L, dihydroquercetin 0.2 mmol/L, single or combined, 6 hr, control 51.0
Method: On the following day after cell seeding, test substances were added and the cells were cultured for 6 hr before harvesting them. The amounts of relative phospho-4E-BP1 protein contained in the prepared whole cell lysates were measured and evaluated. Each group (N=3) was treated as follows: • (1) Control (vehicle control) group: 1% ethanol containing medium • (2) Metformin single-treated group: metformin 10 mmol/L • (3) Dihydroquercetin single-treated group: dihydroquercetin 0.2 mmol/L • (4) Combined-treated group: metformin 10 mmol/L+dihydroquercetin 0.2 mmol/L
The passage-cultured 22Rv1 cells were dissociated with trypsin, and suspended in fresh medium. The cell density of the cell suspension was determined using a hematocytometer and adjusted to 2.5×10^5 cells/mL. The cells were seeded on 12-well multiwell culture plate at 1 mL per well, and cultured overnight under the conditions of 37° C., 5% CO2. […] Upon centrifugation, the supernatants were sampled, and the amounts of relative phospho-4E-BP1 (Thr37/Thr46) protein in the samples were quantified using ELISA kits in the same manner as in Example 1. The concentrations of total protein in the whole cell lysates were measured using BCA protein assay, and the relative phospho-4E-BP1 protein amount of each well was normalized with the total protein amount. […]

[4] = test system: phospho-4E-BP1 (Thr37/Thr46) protein; experiment: Relative phospho-4E-BP1 protein amount (ELISA) in human bile duct cancer cell line HuH-28 (Example 7); format: cell-based; conditions: metformin 20 mmol/L, dihydroquercetin 0.2 mmol/L, single or combined, 6 hr, control 58.8
Method: On the following day after cell seeding, test substances were added and the cells were cultured for 6 hr before harvesting them. The amounts of relative phospho-4E-BP1 protein contained in the prepared whole cell lysates were measured and evaluated. Each group (N=3) was treated as follows: • (1) Control (vehicle control) group: 1% ethanol containing medium • (2) Metformin single-treated group: metformin 20 mmol/L • (3) dihydroquercetin single-treated group: dihydroquercetin 0.2 mmol/L • (4) combined-treated group: metformin 20 mmol/L+dihydroquercetin 0.2 mmol/L
The passage-cultured HuH-28 cells were dissociated with trypsin, and suspended in the medium. The cell density of the cell suspension was determined using a hematocytometer and adjusted to 2.5×10^5 cells/mL. The cells were seeded on 12-well multiwell culture plate at 1 mL per well, and cultured overnight under the conditions of 37° C., 5% CO2. […] Upon centrifugation, the supernatants were sampled, and the amounts of relative phospho-4E-BP1 (Thr37/Thr46) protein in the samples were quantified using ELISA kits in the same manner as in Example 1. The total protein concentrations in the whole cell lysates were measured using BCA protein assay, and the relative phospho-4E-BP1 protein amount of each well was normalized with the total protein amount. […]

[5] = test system: phospho-4E-BP1 (Thr37/Thr46) protein; experiment: Relative phospho-4E-BP1 protein amount (ELISA) in human ovarian cancer cell line Caov-3 (Example 8); format: cell-based; conditions: metformin 20 mmol/L, dihydroquercetin 0.2 mmol/L, single or combined, 6 hr, control 21.6
Method: On the following day after cell seeding, test substances were added and the cells were cultured for 6 hr before harvesting them. The amounts of relative phospho-4E-BP1 protein contained in the prepared whole cell lysates were measured and evaluated. Each group (N=3) was treated as follows: • (1) Control (vehicle control) group: 1% ethanol containing medium • (2) Metformin single-treated group: metformin 20 mmol/L • (3) Dihydroquercetin single-treated group: dihydroquercetin 0.2 mmol/L • (4) Combined-treated group: metformin 20 mmol/L+dihydroquercetin 0.2 mmol/L
The passage-cultured Caov-3 cells were dissociated with trypsin, and suspended in fresh medium. The cell density of the cell suspension was determined using a hematocytometer and adjusted to 2.5×10^5 cells/mL. The cells were seeded on 12-well multiwell culture plate at 1 mL per well, and cultured overnight under the conditions of 37° C., 5% CO2. […] Upon centrifugation, the supernatants were sampled, and the amounts of relative phospho-4E-BP1 (Thr37/Thr46) protein in the samples were quantified using ELISA kits in the same manner as in Example 1. The total protein concentrations in the whole cell lysates were measured using BCA protein assay, and the relative phospho-4E-BP1 protein amount of each well was normalized with the total protein amount. […]

[6] = test system: phospho-4E-BP1 (Thr37/Thr46) protein; experiment: Relative phospho-4E-BP1 protein amount (ELISA) in human pancreatic cancer cell line AsPC-1, 24 hr (Example 9); format: cell-based; conditions: single or combined
Method: Each group (N=3) was treated as follows. • (1) Control (vehicle control) group: 1% ethanol containing medium • (2) Metformin single-treated group: metformin 1.5, 3 and 6 mmol/L • (3) Dihydroquercetin-single treated group: dihydroquercetin 0.3 mmol/L • (4) Combined-treated group: metformin 1.5, 3 and 6 mmol/L+dihydroquercetin 0.3 mmol/L
The passage-cultured AsPC-1 cells were dissociated with trypsin, and suspended in fresh medium. The cell density of the cell suspension was determined using a hematocytometer and adjusted to 2.5×10^5 cells/mL. The cells were seeded on 12-well multiwell culture plate at 1 mL per well, and cultured overnight under the conditions of 37° C., 5% CO2. On the following day, medium containing metformin or dihydroquercetin or both metformin and dihydroquercetin, at the given concentration, was added into each well. After incubation under the conditions of 37° C., 5% CO2 for 24 hr, the cells in each well were washed twice with D-PBS, and whole cell lysates were prepared using cell lysis buffer. Upon centrifugation, the supernatants were sampled, and the amounts of relative phospho-4E-BP1 (Thr37/Thr46) protein in the samples were quantified using ELISA kits in the same manner as in Example 1. The concentrations of total protein in the whole cell lysates were measured using BCA protein assay, and the relative phospho-4E-BP1 protein amount of each well was normalized with the total protein amount.
To evaluate the influence of the combined use on relative phospho-4E-BP1 protein amount, Dunnett test was performed to compare the combined-treated group with each single agent-treated group. […] The differences were considered statistically significant when the p value was less than 0.05.

[7] = test system: WI-38 cells; experiment: Metformin-induced lactate production in human lung fibroblast cell line WI-38 (Example 3); format: cell-based; conditions: dihydroquercetin 1 mmol/L added 1 hr before metformin 20 mmol/L, 6 hr, vs metformin single (FIG. 3)
Method: After the culture, the conditioned medium was sampled, and the concentration of lactate contained in the medium was measured and evaluated.
Medium containing the given concentration of dihydroquercetin was added to each well and the cells were cultured for 1 hr. […] Using the Lactate Assay Kit II (BioVision) catalog no. K627-100, lactate concentration was measured.

[8] = test system: WI-38 cells; experiment: Lactate production in human lung fibroblast cell line WI-38, racemate and optically-active dihydroquercetin (Example 10); conditions: for Metformin-induced lactate production: dihydroquercetin 1 mmol/L added 1 hr before metformin 20 mmol/L, 6 hr (FIG. 4, FIG. 5); for Lactate production: dihydroquercetin 1 mmol/L single, compared with the control group (FIG. 4, FIG. 5)
Method: On the following day after cell seeding, dihydroquercetin was added and the cells were cultured for 1 hr. Then, metformin was added and the cells were cultured for 6 hr. The conditioned medium was sampled, and the concentration of the lactate contained in the medium was measured and evaluated. Each group (N=3) was treated as follows: • (1) Control (vehicle control) group: 1% ethanol containing medium • (2) Dihydroquercetin single-treated group: dihydroquercetin 1 mmol/L • (3) Metformin single-treated group: metformin 20 mmol/L • (4) Combined-treated group: metformin 20 mmol/L+dihydroquercetin 1 mmol/L
The passage-cultured WI-38 cells were dissociated with trypsin, and suspended in fresh medium. The cell density of the cell suspension was determined using a hematocytometer and adjusted to 2.5×10^5 cells/mL. The cells were seeded on 24-well multiwell culture plate (IWAKI) at 0.5 mL per well, and cultured overnight under the conditions of 37° C., 5% CO2. Thereto was added a medium containing a given concentration of dihydroquercetin and the cells were cultured for 1 hr, a medium containing a given concentration of metformin was added and the cells were further cultured for 6 hr. After culture, the culture supernatant from each well was sampled and passed through a filter for molecular weight cut-off 10 kDa to obtain the filtrate. Using the Lactate Assay Kit II (BioVision) catalog no. K627-100, lactate concentration was measured. The cells after sampling of the culture supernatant were washed twice with D-PBS, and cell lysis buffer was added to prepare whole cell lysates. The concentrations of the protein in the whole cell lysates were measured using BCA protein assay, and the lactate concentration of each well was normalized with the protein concentration.
To evaluate the influence of dihydroquercetin on the metformin-induced produced lactate content, the Student's t-test was performed for the concentration of lactate in the medium between the control group and the dihydroquercetin single agent treated group, and between the control group and the metformin single agent treated group. In addition, to evaluate an influence of the combination of dihydroquercetin and metformin for normalized produced lactate content, a two-way ANOVA (two-tailed) (factors: group and concentration) was performed between the dihydroquercetin single agent treated group (groups 1 and 2) and the metformin treated group (groups 3 and 4). […] The analysis was performed using SAS software Release 9.3 (SAS Institute Japan). The differences were considered statistically significant when the p value was less than 0.05.

[9] = test system: phospho-4E-BP1 (Thr37/Thr46) protein; experiment: Relative phospho-4E-BP1 protein amount (ELISA) in AsPC-1, dihydroquercetin single agent (Example 11); format: cell-based, human
Method: To evaluate the dose dependency of dihydroquercetin on the relative phospho-4E-BP1 protein amount, the linear regression analysis was performed. As a result, dose dependency was observed. Then, the Williams' test (one-tailed) was performed between the control group and the single agent treated group. As a result, a significant suppressive action of dihydroquercetin at not less than 0.5 mmol/L on relative phospho-4E-BP1 protein amount was observed.

[10] = test system: AsPC-1 cells; experiment: Proportion of CD44 and CD24 double positive cells (cancer stem cell surface markers) in AsPC-1 by flow cytometry (Example 12); format: cell-based, human; conditions: 72 hr, dihydroquercetin 0.3 mmol/L, metformin 15 mmol/L + dihydroquercetin 0.3 mmol/L, or gemcitabine 100 nmol/L, compared with the control group (FIG. 7)
Method: Each group (N=10) was treated as follows: • (1) Control (vehicle control) group: 1.5% distilled water, 0.3% ethanol and 0.1% DMSO containing medium • (2) Metformin single-treated group: metformin 15 mmol/L • (3) Dihydroquercetin single-treated group: dihydroquercetin 0.3 mmol/L • (4) Metformin-dihydroquercetin combined-treated group: metformin 15 mmol/L+dihydroquercetin 0.3 mmol/L • (5) Gemcitabine single-treated group: gemcitabine 100 nmol/L • (6) Metformin.dihydroquercetin.gemcitabine combined-treated group: metformin 15 mmol/L+dihydroquercetin 0.3 mmol/L+gemcitabine 100 nmol/L
The passage-cultured AsPC-1 cells were dissociated with trypsin, and suspended in fresh medium. The cell density of the cell suspension was determined using a hematocytometer and adjusted to 2×10^4 cells/mL. The cells were seeded on 6-well multiwell culture plate (IWAKI) at 3 mL per well, and cultured overnight under the conditions of 37° C., 5% CO2. […] After washing with FACS (fluorescence activated cell sorting) buffer, the cells were stained with FITC-labeled anti-human CD44 antibody and APC-labeled anti-human CD24 antibody, and treated at 4° C. for 30 min. Thereafter, the cells were washed with the FACS buffer, passed through a 40 micron mesh filter, and the proportion of CD44 and CD24 double positive cells was determined using the flow cytometer (Nippon Becton Dickinson and Company, Ltd.). […]

[11] = metformin:dihydroquercetin = 1.5 mmol/L:0.3 mmol/L, control 107.3
[12] = metformin:dihydroquercetin = 3 mmol/L:0.3 mmol/L, control 33.5
[13] = metformin:dihydroquercetin = 6 mmol/L:0.3 mmol/L, control 107.3

| Structure (SMILES) | Relative phospho-4E-BP1 protein amount MEAN [1] | Relative phospho-4E-BP1 protein amount MEAN [2] | Relative phospho-4E-BP1 protein amount MEAN [3] | Relative phospho-4E-BP1 protein amount MEAN [4] | Relative phospho-4E-BP1 protein amount MEAN [5] | Relative phospho-4E-BP1 protein amount MEAN [6, 11] | Relative phospho-4E-BP1 protein amount MEAN [6, 12] | Relative phospho-4E-BP1 protein amount MEAN [6, 13] | Lactate production induced by metformin [7] | Metformin-induced lactate production [8] | Lactate production [8] | Concentration of dihydroquercetin with significant suppressive action on relative phospho-4E-BP1 protein amount ([9]; 6 hr, Williams' test vs control group) | Relative phospho-4E-BP1 protein amount ([9]; dihydroquercetin 0.5 and 1 mmol/L single agent, 6 hr (FIG. 6)) | Proportion of CD44 and CD24 double positive cells [10] |
| --- | --- | --- | --- | --- | --- | --- | --- | --- | --- | --- | --- | --- | --- | --- |
| CN(C)C(=N)N=C(N)N [Metformin, metformin] | 61.7 | 37.1 | 57.3 | 55.2 | 22.0 | 83.1 | 36.9 | 83.1 |  |  |  |  |  |  |
| O=C1c2c(O)cc(O)cc2OC(c2ccc(O)c(O)c2)C1O (racemic) [Dihydroquercetin, dihydroquercetin] | 59.7 | 25.9 | 53.1 | 54.2 | 21.0 | 97.4 | 37.2 | 89.7 | significantly suppressed the lactate production induced by metformin | significantly suppressed | suppressed lactate production | not less than 0.5 mmol/L | dose-dependent suppressive effect | significantly decreased |
| O=C1c2c(O)cc(O)cc2O[C@H](c2ccc(O)c(O)c2)[C@H]1O [optically-active dihydroquercetin, (2R,3R)-dihydroquercetin] |  |  |  |  |  |  |  |  |  | significantly suppressed | suppressed lactate production |  |  |  |
| Nc1ccn([C@@H]2O[C@H](CO)[C@@H](O)C2(F)F)c(=O)n1 [Gemcitabine, gemcitabine, reference compound] |  |  |  |  |  |  |  |  |  |  |  |  |  | significantly increased |

Source: patent publication US10292962B2, “Pharmaceutical combination comprising metformin and dihydroquercetin and its use for the treatment of cancer” (RESEARCH INSTITUTE FOR NUTRITION AND AGING CO., LTD., priority 2013, dated 2019)
